Assay results from US20130156762A1, “Mechanically-Activated Cation Channels” (The Scripps Research Institute, priority 2010, published 2013).

Key:
Piezo1 = target: T1, Piezo1 (Mus musculus, UniProt E2JF22); assay: Block of Piezo1-induced MA currents in Piezo1-expressing cells (whole-cell); format: cell-based; details: for Percent block of Piezo1-induced MA current: 30 μM
T1 construct: expressed in transfected cells; HEK293T for immunocytochemistry
Description: (§1) Patch-clamp experiments were performed in standard whole-cell or cell attached recordings using an Axopatch 200B amplifier (Axon Instruments). Patch pipettes had resistance of 2-3 MΩ when filled with an internal solution consisting of (in mM) 133 CsCl, 10 HEPES, 5 EGTA, 1 CaCl2, 1 MgCl2, 4 MgATP, and 0.4 Na2GTP (pH adjusted to 7.3 with CsOH). The extracellular solution consisted of (in mM) 127-130 NaCl, 3 KCl, 1 MgCl2, 10 HEPES, 2.5 CaCl2, 10 glucose (pH adjusted to 7.3 with NaOH). NMDG solution consisted of (in mM) 150 NMDG, 10 HEPES (pH 7.5). For ion selectivity experiments, internal solution consisted of (in mM) 150 CsCl, 10 Hepes (pH 7.3 with CsOH), monovalent external solutions consisted of (in mM) 150 NaCl or KCl, 10 HEPES (pH 7.3 with NaOH or KOH) and divalent external solutions consisted of (in mM) 100 CaCl2 or MgCl2, 10 HEPES (pH 7.3 with CsOH). For cell attached recordings, pipette were filled with a solution consisting of (in mM) 130 NaCl, 5 KCl, 10 HEPES, 1 CaCl2, 1 MgCl2, 10 TEA-C1 (pH 7.3 with NaOH) and external solution used to zero the membrane potential consisted of (in mM) 140 KCl, 10 HEPES, 1 MgCl2, 10 glucose (pH 7.3 with KOH). All experiments were done at room temperature. Currents were sampled at 20 kHz and filtered at 2 kHz. Voltages were not corrected for a liquid junction potential excepted for ion selectivity experiments were LJP were calculated using Clampex 10.1 software (Axon Instruments). Leak currents before mechanical stimulations were subtracted off-line from the current traces. 10 mM ruthenium red stock solution was prepared in DMSO; 100 mM gadolinium stock solution, in water.
(§2) For whole-cell recordings mechanical stimulation was achieved using a fire-polished glass pipette (tip diameter 3-4 μm) positioned at an angle of 80° to the cell being recorded. Downward movement of the probe toward the cell was driven by a Clampex controlled piezo-electric crystal microstage (E625 LVPZT Controller/Amplifier; Physik Instrumente). […] Inward MA currents were recorded at a holding potential of −80 mV. […]

Piezo2 = target: T2, Piezo2 (Mus musculus, UniProt Q8CD54); assay: Block of Piezo2-induced MA currents in Piezo2-expressing cells (whole-cell); format: cell-based; details: for Percent block of Piezo2-induced MA currents: 30 μM
T2 construct: expressed in transfected cells; host or cells: N2A (with Piezo1 siRNA) or HEK293T; A13: N2A
Description: as §1, §2

N2A cells = assay: Whole-cell mechanical stimulation (piezo-driven glass probe), MA currents in N2A cells; format: cell-based, mouse
Description: Cell culture and transient transfection. Neuro2A cells were grown in Eagle's Minimum Essential Medium containing 4.5 mg.ml^−1 glucose, 10% fetal bovine serum, 50 units.ml^−1 penicillin and 50 μg.ml^−1 streptomycin. C2C12 or Human Embryonic Kidney 293T (HEK293T) cells were grown in Dulbecco's Modified Eagle Medium containing 4.5 mg.ml^−1 glucose, 10% fetal bovine serum, 50 units.ml^−1 penicillin and 50 μg.ml^−1 streptomycin. Cells were plated onto 35 mm dishes or 12-mm round glass coverslips placed in 24-well plates and transfected using lipofectamine 2000 (Invitrogen) according to the manufacturer's instructions. For Piezo1 overexpression experiment, 500 to 1000 ng.ml^−1 of Piezo1-IRES-GFP or vector only were transfected, and cells were recorded 12-48 hours later. For Piezo2 overexpression experiments, 600 to 1000 ng.ml^−1 of mPiezo2 or vector were co-transfected with 300 ng.ml^−1 GFP to identify transfected cells and cells were recorded 12-48 hours later. […]
(§3) Patch-clamp experiments were performed in standard whole-cell or cell attached recordings using an Axopatch 200B amplifier (Axon Instruments). […] Voltages were not corrected for a liquid junction potential excepted for ion selectivity experiments were LJP were calculated using Clampex 10.1 software (Axon Instruments). […]

C2C12 cells = assay: Whole-cell mechanical stimulation, MA currents in C2C12 cells; format: cell-based, mouse; details: NMDG-chloride external solution, data not shown
Description: Cell culture and transient transfection. Neuro2A cells were grown in Eagle's Minimum Essential Medium containing 4.5 mg.ml^−1 glucose, 10% fetal bovine serum, 50 units.ml^−1 penicillin and 50 μg.ml^−1 streptomycin. C2C12 or Human Embryonic Kidney 293T (HEK293T) cells were grown in Dulbecco's Modified Eagle Medium containing 4.5 mg.ml^−1 glucose, 10% fetal bovine serum, 50 units.ml^−1 penicillin and 50 μg.ml^−1 streptomycin. Cells were plated onto 35 mm dishes or 12-mm round glass coverslips placed in 24-well plates and transfected using lipofectamine 2000 (Invitrogen) according to the manufacturer's instructions. For Piezo1 overexpression experiment, 500 to 1000 ng.ml^−1 of Piezo1-IRES-GFP or vector only were transfected, and cells were recorded 12-48 hours later. For Piezo2 overexpression experiments, 600 to 1000 ng.ml^−1 of mPiezo2 or vector were co-transfected with 300 ng.ml^−1 GFP to identify transfected cells and cells were recorded 12-48 hours later.
as §3

T2 sequence (Q8CD54 whole entry): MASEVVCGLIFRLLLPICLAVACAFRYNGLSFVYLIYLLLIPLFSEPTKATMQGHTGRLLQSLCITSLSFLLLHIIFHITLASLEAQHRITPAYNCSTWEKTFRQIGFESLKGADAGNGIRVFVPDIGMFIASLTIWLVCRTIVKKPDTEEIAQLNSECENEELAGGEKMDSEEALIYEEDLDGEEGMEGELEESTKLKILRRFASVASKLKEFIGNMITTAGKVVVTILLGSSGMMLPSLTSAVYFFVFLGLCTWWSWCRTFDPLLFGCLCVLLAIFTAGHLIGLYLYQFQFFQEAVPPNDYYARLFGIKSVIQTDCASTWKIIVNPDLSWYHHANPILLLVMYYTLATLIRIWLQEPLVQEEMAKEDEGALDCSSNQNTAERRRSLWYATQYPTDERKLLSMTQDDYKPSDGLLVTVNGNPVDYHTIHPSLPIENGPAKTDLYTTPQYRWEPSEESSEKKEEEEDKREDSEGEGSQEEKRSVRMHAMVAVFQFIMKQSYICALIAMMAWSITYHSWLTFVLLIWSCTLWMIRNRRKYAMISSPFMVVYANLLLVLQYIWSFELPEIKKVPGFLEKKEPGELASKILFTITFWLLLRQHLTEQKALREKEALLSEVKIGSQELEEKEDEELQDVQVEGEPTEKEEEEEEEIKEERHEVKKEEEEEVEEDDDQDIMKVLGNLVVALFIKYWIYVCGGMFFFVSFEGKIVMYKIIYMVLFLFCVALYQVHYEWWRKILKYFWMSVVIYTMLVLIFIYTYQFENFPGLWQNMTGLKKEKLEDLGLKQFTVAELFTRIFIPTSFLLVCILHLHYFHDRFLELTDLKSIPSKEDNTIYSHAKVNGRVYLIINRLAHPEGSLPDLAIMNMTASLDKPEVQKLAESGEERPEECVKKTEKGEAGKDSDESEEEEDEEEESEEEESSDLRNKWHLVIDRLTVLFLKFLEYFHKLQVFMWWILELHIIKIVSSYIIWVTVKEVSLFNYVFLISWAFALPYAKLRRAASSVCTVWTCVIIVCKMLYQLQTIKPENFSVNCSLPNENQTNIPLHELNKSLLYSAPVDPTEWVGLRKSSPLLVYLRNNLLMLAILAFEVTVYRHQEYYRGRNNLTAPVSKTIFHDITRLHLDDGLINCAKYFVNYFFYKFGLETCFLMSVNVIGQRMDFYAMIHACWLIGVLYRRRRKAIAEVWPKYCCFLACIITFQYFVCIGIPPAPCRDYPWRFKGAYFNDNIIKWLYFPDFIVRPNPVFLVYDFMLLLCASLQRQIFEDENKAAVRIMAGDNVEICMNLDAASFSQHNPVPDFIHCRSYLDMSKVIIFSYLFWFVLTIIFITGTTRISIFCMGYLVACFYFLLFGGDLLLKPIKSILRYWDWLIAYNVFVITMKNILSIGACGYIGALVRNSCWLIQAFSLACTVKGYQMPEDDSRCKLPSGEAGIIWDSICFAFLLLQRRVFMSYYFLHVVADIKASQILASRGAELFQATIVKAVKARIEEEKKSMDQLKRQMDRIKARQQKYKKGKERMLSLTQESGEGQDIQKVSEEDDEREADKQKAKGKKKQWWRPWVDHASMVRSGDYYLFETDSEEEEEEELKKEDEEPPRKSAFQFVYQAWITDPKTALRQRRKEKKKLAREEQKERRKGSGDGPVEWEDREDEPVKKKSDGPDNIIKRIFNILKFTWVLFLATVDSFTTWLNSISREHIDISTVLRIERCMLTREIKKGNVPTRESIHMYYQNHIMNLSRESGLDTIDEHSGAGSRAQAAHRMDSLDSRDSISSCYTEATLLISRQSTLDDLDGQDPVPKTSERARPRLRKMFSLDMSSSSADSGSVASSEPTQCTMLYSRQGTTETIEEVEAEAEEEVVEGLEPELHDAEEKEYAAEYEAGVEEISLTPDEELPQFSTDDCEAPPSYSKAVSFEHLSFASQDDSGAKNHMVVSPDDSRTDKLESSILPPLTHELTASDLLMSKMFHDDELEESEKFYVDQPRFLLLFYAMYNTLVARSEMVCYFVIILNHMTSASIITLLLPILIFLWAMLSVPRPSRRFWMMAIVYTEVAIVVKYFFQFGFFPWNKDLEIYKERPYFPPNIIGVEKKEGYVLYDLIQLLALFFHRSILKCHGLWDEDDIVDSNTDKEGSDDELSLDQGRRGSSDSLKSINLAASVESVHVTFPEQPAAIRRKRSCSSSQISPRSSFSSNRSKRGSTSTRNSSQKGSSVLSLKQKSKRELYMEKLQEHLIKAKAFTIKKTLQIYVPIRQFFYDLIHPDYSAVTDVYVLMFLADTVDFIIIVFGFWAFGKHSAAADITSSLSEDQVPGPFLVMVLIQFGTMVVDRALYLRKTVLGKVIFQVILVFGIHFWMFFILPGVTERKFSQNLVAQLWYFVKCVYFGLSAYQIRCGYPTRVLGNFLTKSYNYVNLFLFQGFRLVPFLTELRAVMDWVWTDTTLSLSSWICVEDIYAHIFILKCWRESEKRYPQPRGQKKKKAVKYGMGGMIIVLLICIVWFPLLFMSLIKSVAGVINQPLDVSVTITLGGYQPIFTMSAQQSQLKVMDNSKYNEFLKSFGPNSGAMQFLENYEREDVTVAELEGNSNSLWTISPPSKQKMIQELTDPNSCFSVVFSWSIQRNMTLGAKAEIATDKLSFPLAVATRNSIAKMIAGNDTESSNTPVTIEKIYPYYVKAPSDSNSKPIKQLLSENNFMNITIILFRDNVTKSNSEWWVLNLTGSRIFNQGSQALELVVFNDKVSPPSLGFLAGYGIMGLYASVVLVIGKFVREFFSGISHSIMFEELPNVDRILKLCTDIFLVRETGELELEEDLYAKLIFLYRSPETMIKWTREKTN

Compound: [Gd] [gadolinium]
- Percent block of Piezo1-induced MA current (Piezo1): 84.3±3.8%
- Percent block of Piezo2-induced MA currents (Piezo2): 85.0±3.7%

Compound: CNC[C@H](O)[C@@H](O)[C@H](O)[C@H](O)CO [NMDG]
- Effect on inward endogenous MA currents (N2A cells; NMDG-chloride external solution, data not shown): suppressed
- Effect on inward Piezo1-induced MA currents (Piezo1; NMDG substituted in extracellular bathing solution (150 mM NMDG-Cl)): suppressed
- Effect on inward endogenous MA currents (C2C12 cells): suppressed
- Effect on Piezo2-induced currents (Piezo2; perfusion with NMDG-Cl solution): suppressed

Compound: N.N.N.N.N.N.N.N.N.N.N.N.N.N.[Cl-].[Cl-].[Cl-].[Cl-].[Cl-].[Cl-].[O-2].[O-2].[Ru+3].[Ru+3].[Ru+4] [ruthenium red]
- Percent block of Piezo1-induced MA current (Piezo1): 74.6±2.5%
- Percent block of Piezo2-induced MA currents (Piezo2): 79.2±4.2%

Compound: O=C(O)CN(CCOCCOCCN(CC(=O)O)CC(=O)O)CC(=O)O [EGTA]
- Effect on MA currents (N2A cells; extracellular perfusion of divalent-free 5 mM EGTA solution for 30-60 min): did not suppress
